Molecules are shown by their SMILES.

The target in one data set is influenza NA protein (Influenza A virus, UniProt P03470). In kind it is cell-based, influenza virus (WSN).
A further data set in a line: in vitro. The settings on record: dog.
The next data set concerns H1N1 virus. Put plainly: microbe, parasite or virus in culture. The class given is cell-based. The settings on record: Influenza A virus, H1N1, MDCK.

Chain of influenza NA protein (P03470 whole entry, looked up): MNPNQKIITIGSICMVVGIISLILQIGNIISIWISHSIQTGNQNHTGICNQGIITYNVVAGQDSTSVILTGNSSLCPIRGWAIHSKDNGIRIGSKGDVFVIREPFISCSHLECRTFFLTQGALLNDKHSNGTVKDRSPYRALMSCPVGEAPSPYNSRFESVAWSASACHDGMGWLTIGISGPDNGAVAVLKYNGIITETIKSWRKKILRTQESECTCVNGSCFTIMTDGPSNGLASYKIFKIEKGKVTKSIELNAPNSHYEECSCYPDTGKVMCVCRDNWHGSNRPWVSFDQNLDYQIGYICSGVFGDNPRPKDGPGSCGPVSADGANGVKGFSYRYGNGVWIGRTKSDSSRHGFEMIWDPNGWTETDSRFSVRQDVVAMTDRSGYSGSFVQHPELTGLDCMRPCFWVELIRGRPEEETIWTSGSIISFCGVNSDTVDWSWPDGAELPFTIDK

Usually EC50 stands for the concentration that produces a half-maximal response. Higher therefore signals a less potent agent. For `CCOC(=O)C1=C[C@@H](OC(CC)CC)[C@H](NC(C)=O)[C@@H](N)C1` [OSP, oseltamivir phosphate], the NA protein degradation result on influenza NA protein is on record as “no degradation activity”. For the same compound, in the data set “in vitro”, the CC50 was > 50000 nM. In the data set on H1N1 virus, this compound showed an EC50 of 360 nM.

Values taken from PMC10120310 (Cell Insight, 2022).
